Data reported in patent US20100166933A1, “Frozen Confectionery and Beverage Products” (priority 2008, published 2010).

Assays:
[1] = Human crossover study, Bond-Lader mood questionnaire: alertness (Example 4); type: in vivo; details: theobromine 700 mg, caffeine 120 mg, gelatine capsule; for Alertness score in Bond-Lader test, 1 hour: 1 hour after ingestion; for Alertness score in Bond-Lader test, 2 hours: 2 hours after ingestion; for Alertness score in Bond-Lader test, 3 hours: 3 hours after ingestion; for Alertness score in Bond-Lader test, Time zero: time zero (baseline), 24 healthy volunteers
Excerpt: (§1) Volunteers consumed one of 4 treatments: theobromine only, caffeine only, theobromine and caffeine combined or placebo. […] Theobromine was pharmaceutical grade, supplied by Fagron, Netherlands. […] The placebo capsules matched in appearance and were filled with Avicel (microcrystalline cellulose). The gelatin capsules (size 1) were supplied by Blockland Medical supplies and meet European Pharmacopoeia (Ph. Eur) standards. […] Twenty-four healthy volunteers took part and arrived at the laboratory having consumed a standard lunch and having abstained from theobromine- and caffeine-containing foods such as chocolate for 12 hours. At the start of each session, participants answered a baseline set of questionnaires, which took approximately 15 minutes to complete. On completion, they were given a 10 minute break in which to consume the capsules. The questionnaire was repeated 1, 2 and 3 hours after ingestion. Blood pressure was measured at 0, 1 and 3 hours after treatment. Participants were allowed to read quietly between test batteries.

[2] = Human crossover study, systolic blood pressure (Example 4); details: theobromine 700 mg, caffeine 120 mg; for Change in systolic blood pressure, 1 hour: 1 hour after treatment; for Change in systolic blood pressure, 1 hour / Change in systolic blood pressure, 3 hours / Change in systolic blood pressure, Time zero: gelatine capsule; for Change in systolic blood pressure, 3 hours: 3 hours after treatment
Excerpt: as §1

Row | Compound | Alertness score in Bond-Lader test, 1 hour [1] | Alertness score in Bond-Lader test, 2 hours [1] | Alertness score in Bond-Lader test, 3 hours [1] | Alertness score in Bond-Lader test, Time zero [1] | Change in systolic blood pressure, 1 hour [2] | Change in systolic blood pressure, 3 hours [2] | Change in systolic blood pressure, Time zero [2] [Hgmm] | Effect on systolic blood pressure after 1 hour (in words) ([2]; after 1 hour)
1 | Cn1cnc2c1c(=O)[nH]c(=O)n2C [Theobromine, 3,7-dimethylxanthine] | −0.06 | −0.03 | −0.01 | 0 | +3 Hgmm | +4 Hgmm | 0 | 
2 | Cn1c(=O)c2c(ncn2C)n(C)c1=O [Caffeine, 1,3,7-trimethylxanthine] | +0.01 | +0.05 | +0.07 | 0 | +10 Hgmm | −3 Hgmm | 0 | rise in systolic blood pressure (significantly higher than placebo)
